Reference: the kinase profiling compilation of Christmann-Franck et al. (2016)

Columns and labels:
Assay in all cases: radiometric filter-binding kinase assay
[1] = test system: AKT2 (human), P31751 [S474D]
CAMKK2 (human) = CAMKK2 (human) (UniProt Q96RR4)
CHEK1 (human) = CHEK1 (human) (UniProt O14757)
CLK2 (human) = CLK2 (human) (UniProt P49760)
CSNK1D (human) = CSNK1D (human) (UniProt P48730)
DYRK1A (human) = DYRK1A (human) (UniProt Q13627)
EPHA4 (human) = EPHA4 (human) (UniProt P54764)
HIPK3 (human) = HIPK3 (human) (UniProt Q9H422)
IGF1R (human) = IGF1R (human) (UniProt P08069)
IKBKE (human) = IKBKE (human) (UniProt Q14164)
IRAK4 (human) = IRAK4 (human) (UniProt Q9NWZ3)
MAP3K7 TAB1 (human) = MAP3K7 TAB1 (human) (UniProt Q15750+O43318)
MAPK12 (human) = MAPK12 (human) (UniProt P53778)
MAPK14 (human) = MAPK14 (human) (UniProt Q16539)
MAPK15 (human) = MAPK15 (human) (UniProt Q8TD08)
MAPK3 (human) = MAPK3 (human) (UniProt P27361)
MAPKAPK2 (human) = MAPKAPK2 (human) (UniProt P49137)
MARK1 (human) = MARK1 (human) (UniProt Q9P0L2)
MARK2 (human) = MARK2 (human) (UniProt Q7KZI7)
MST4 (human) = MST4 (human) (UniProt Q9P289)
NEK2 (human) = NEK2 (human) (UniProt P51955)
NEK6 (human) = NEK6 (human) (UniProt Q9HC98)
[2] = test system: PAK2 (human), Q13177 [T402E]
PAK4 (human) = PAK4 (human) (UniProt O96013)
PAK6 (human) = PAK6 (human) (UniProt Q9NQU5)
PAK7 (human) = PAK7 (human) (UniProt Q9P286)
PIM2 (human) = PIM2 (human) (UniProt Q9P1W9)
PIM3 (human) = PIM3 (human) (UniProt Q86V86)
PKN2 (human) = PKN2 (human) (UniProt Q16513)
PLK1 (human) = PLK1 (human) (UniProt P53350)
RIPK2 (human) = RIPK2 (human) (UniProt O43353)
RPS6KA3 KD1 KD2 (human) = RPS6KA3 KD1 KD2 (human) (UniProt P51812)
RPS6KA5 KD1 KD2 (human) = RPS6KA5 KD1 KD2 (human) (UniProt O75582)
[3] = test system: SGK1 (human), O00141 [S422D]
SRPK1 (human) = SRPK1 (human) (UniProt Q96SB4)

Sequence of IRAK4 (human) (Q9NWZ3 whole entry, looked up): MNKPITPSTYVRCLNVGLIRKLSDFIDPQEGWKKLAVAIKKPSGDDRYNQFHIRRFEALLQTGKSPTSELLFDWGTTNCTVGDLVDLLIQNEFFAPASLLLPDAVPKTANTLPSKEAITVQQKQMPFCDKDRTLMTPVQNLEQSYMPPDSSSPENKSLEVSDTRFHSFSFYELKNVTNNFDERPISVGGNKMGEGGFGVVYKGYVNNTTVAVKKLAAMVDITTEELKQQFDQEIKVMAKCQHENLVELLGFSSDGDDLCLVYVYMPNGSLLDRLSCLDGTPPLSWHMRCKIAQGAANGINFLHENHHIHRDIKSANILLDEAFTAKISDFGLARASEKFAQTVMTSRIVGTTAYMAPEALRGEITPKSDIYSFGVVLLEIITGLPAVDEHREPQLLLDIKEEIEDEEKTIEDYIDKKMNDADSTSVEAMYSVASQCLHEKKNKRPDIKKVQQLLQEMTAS
Sequence of MAPK14 (human) (Q16539 whole entry, looked up): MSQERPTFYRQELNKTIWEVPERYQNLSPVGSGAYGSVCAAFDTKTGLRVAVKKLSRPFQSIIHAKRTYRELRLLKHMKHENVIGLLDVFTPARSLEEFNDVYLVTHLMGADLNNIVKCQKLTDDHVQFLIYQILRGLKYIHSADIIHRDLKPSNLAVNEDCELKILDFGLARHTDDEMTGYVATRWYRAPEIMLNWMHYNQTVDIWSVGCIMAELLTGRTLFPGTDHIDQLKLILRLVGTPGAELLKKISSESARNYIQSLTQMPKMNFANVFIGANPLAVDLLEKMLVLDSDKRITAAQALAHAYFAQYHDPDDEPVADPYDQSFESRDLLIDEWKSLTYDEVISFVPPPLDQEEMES
Sequence of MAP3K7 TAB1 (human) (O43318 whole entry, looked up): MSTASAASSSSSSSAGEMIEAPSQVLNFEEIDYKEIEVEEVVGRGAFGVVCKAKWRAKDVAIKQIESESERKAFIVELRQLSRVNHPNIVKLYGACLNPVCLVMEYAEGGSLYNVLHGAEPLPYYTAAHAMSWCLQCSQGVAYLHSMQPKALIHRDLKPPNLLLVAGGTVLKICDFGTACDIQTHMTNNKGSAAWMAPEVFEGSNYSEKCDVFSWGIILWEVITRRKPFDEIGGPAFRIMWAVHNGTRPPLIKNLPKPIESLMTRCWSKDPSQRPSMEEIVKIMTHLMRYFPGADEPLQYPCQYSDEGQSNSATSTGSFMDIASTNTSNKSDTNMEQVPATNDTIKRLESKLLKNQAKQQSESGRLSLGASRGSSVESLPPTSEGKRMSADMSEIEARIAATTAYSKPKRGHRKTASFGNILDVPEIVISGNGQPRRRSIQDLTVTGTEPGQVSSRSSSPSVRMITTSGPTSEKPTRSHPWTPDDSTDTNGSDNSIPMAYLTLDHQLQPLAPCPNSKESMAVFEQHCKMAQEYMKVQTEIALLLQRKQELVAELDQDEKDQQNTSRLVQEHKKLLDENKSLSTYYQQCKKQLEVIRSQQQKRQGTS
Sequence of MAP3K7 TAB1 (human) (Q15750 whole entry, looked up): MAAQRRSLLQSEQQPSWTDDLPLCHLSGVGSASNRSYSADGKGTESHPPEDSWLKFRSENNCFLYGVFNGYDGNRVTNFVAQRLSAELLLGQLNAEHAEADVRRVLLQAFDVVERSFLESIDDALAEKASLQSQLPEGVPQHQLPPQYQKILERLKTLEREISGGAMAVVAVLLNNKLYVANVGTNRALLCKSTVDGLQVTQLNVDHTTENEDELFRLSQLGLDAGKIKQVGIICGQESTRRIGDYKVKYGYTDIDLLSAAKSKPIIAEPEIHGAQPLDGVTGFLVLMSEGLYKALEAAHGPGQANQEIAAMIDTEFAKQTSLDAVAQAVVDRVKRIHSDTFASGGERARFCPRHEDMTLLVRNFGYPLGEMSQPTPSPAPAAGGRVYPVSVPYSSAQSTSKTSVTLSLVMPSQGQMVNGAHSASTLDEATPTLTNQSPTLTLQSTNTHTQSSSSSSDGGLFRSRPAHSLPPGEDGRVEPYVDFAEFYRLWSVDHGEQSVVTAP
Sequence of MAPKAPK2 (human) (P49137 whole entry, looked up): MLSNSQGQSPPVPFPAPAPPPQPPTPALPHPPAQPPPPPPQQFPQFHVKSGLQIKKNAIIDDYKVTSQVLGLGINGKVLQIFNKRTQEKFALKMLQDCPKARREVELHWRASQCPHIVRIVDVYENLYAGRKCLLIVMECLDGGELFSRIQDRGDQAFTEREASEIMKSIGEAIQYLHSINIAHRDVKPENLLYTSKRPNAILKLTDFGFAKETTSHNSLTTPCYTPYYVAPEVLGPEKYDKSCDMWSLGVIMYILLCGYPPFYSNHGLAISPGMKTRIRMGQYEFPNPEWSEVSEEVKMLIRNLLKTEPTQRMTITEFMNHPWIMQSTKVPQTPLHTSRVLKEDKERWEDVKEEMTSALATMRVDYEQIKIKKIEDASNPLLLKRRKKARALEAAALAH
Sequence of SGK1 (human), O00141 [S422D] (O00141 whole entry S422D, looked up): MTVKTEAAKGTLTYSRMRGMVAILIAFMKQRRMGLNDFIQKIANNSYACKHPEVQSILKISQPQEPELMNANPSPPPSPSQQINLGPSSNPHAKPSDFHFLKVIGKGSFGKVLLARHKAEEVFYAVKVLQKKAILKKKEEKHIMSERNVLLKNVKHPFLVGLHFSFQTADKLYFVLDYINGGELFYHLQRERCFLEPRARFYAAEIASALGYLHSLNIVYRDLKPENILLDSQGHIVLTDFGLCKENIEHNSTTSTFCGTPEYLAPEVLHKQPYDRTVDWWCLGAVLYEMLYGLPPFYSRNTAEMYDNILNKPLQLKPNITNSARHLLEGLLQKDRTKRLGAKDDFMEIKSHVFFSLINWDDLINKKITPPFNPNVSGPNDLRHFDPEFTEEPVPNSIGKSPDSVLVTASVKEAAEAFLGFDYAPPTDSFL
Sequence of MAPK15 (human) (Q8TD08 whole entry, looked up): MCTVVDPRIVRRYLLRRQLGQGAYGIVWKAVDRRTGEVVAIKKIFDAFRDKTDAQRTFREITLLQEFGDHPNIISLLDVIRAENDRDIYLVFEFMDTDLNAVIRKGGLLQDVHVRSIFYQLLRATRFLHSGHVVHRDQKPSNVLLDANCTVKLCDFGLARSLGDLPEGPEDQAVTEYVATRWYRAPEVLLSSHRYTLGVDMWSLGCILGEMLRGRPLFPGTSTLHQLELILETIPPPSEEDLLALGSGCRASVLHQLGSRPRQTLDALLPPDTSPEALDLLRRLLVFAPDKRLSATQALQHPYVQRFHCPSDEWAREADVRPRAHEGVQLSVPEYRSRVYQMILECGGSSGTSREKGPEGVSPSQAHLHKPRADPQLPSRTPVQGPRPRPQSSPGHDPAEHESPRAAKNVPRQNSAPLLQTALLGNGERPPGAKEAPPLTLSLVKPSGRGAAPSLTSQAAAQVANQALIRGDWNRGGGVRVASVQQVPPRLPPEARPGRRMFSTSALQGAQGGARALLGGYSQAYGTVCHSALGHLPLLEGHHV
Sequence of CSNK1D (human) (P48730 whole entry, looked up): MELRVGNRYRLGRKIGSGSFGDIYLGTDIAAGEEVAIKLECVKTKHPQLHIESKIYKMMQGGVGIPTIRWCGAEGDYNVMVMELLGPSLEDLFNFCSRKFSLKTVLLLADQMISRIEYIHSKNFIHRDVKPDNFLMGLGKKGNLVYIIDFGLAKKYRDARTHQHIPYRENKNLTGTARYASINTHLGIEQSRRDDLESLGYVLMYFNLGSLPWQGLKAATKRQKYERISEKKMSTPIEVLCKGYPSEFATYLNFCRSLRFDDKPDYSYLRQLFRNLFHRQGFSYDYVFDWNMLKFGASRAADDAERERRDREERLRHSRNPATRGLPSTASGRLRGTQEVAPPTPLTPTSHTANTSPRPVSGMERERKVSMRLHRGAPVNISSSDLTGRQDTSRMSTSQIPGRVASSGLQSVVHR
Sequence of PLK1 (human) (P53350 whole entry, looked up): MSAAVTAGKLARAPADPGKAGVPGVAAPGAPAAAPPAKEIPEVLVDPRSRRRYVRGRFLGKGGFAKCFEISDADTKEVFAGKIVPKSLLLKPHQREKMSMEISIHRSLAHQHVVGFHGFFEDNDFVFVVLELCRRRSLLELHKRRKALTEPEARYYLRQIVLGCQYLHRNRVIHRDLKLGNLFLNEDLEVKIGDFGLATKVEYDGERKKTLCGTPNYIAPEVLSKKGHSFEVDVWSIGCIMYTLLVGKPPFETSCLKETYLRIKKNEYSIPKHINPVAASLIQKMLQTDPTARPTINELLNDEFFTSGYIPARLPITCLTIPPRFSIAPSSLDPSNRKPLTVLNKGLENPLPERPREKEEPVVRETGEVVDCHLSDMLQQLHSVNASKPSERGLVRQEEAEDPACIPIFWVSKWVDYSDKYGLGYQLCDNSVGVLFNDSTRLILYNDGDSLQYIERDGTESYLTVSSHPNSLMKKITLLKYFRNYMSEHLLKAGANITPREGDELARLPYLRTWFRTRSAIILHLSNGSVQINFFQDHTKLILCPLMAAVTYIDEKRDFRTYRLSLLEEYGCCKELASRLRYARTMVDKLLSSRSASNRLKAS
Sequence of AKT2 (human), P31751 [S474D] (P31751 whole entry S474D, looked up): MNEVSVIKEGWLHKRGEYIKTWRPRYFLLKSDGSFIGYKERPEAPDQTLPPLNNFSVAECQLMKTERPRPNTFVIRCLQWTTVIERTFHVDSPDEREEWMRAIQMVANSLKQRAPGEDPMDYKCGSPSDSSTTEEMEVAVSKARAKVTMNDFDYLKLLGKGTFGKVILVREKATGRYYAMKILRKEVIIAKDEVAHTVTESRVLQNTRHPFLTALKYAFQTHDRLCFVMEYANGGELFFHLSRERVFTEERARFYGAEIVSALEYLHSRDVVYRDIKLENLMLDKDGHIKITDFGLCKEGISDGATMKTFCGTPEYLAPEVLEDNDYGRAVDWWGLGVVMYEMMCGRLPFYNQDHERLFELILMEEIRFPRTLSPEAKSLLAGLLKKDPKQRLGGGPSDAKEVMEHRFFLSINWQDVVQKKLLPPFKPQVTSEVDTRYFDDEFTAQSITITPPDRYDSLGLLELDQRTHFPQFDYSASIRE

SMILES: COc1cc(C(=O)N2CCOCC2)c(F)cc1Nc1ncc(C(F)(F)F)c(NC2CC2)n1
- residual activity ([1]; compound 1.0 µM): 99%
- residual activity ([1]; compound 10.0 µM): 98%
- residual activity (CAMKK2 (human); compound 1.0 µM): 40%
- residual activity (CAMKK2 (human); compound 10.0 µM): 10%
- residual activity (CHEK1 (human); compound 1.0 µM): 58%
- residual activity (CHEK1 (human); compound 10.0 µM): 25%
- residual activity (CLK2 (human); compound 1.0 µM): 36%
- residual activity (CLK2 (human); compound 10.0 µM): 5%
- residual activity (CSNK1D (human); compound 1.0 µM): 95%
- residual activity (CSNK1D (human); compound 10.0 µM): 67%
- residual activity (DYRK1A (human); compound 1.0 µM): 78%
- residual activity (DYRK1A (human); compound 10.0 µM): 38%
- residual activity (EPHA4 (human); compound 1.0 µM): 86%
- residual activity (EPHA4 (human); compound 10.0 µM): 98%
- residual activity (HIPK3 (human); compound 1.0 µM): 101%
- residual activity (IGF1R (human); compound 1.0 µM): 35%
- residual activity (IGF1R (human); compound 10.0 µM): 8%
- residual activity (IKBKE (human); compound 1.0 µM): 94%
- residual activity (IKBKE (human); compound 10.0 µM): 55%
- residual activity (IRAK4 (human); compound 1.0 µM): 90%
- residual activity (IRAK4 (human); compound 10.0 µM): 93%
- residual activity (MAP3K7 TAB1 (human); compound 1.0 µM): 11%
- residual activity (MAP3K7 TAB1 (human); compound 10.0 µM): 2%
- residual activity (MAPK12 (human); compound 1.0 µM): 98%
- residual activity (MAPK12 (human); compound 10.0 µM): 96%
- residual activity (MAPK14 (human); compound 1.0 µM): 84%
- residual activity (MAPK14 (human); compound 10.0 µM): 119%
- residual activity (MAPK15 (human); compound 1.0 µM): 81%
- residual activity (MAPK15 (human); compound 10.0 µM): 28%
- residual activity (MAPK3 (human); compound 1.0 µM): 79%
- residual activity (MAPK3 (human); compound 10.0 µM): 49%
- residual activity (MAPKAPK2 (human); compound 1.0 µM): 102%
- residual activity (MAPKAPK2 (human); compound 10.0 µM): 97%
- residual activity (MARK1 (human); compound 1.0 µM): 88%
- residual activity (MARK1 (human); compound 10.0 µM): 85%
- residual activity (MARK2 (human); compound 1.0 µM): 100%
- residual activity (MARK2 (human); compound 10.0 µM): 81%
- residual activity (MST4 (human); compound 1.0 µM): 89%
- residual activity (MST4 (human); compound 10.0 µM): 87%
- residual activity (NEK2 (human); compound 1.0 µM): 97%
- residual activity (NEK2 (human); compound 10.0 µM): 72%
- residual activity (NEK6 (human); compound 1.0 µM): 112%
- residual activity (NEK6 (human); compound 10.0 µM): 90%
- residual activity ([2]; compound 1.0 µM): 89%
- residual activity ([2]; compound 10.0 µM): 88%
- residual activity (PAK4 (human); compound 1.0 µM): 85%
- residual activity (PAK4 (human); compound 10.0 µM): 42%
- residual activity (PAK6 (human); compound 1.0 µM): 94%
- residual activity (PAK6 (human); compound 10.0 µM): 94%
- residual activity (PAK7 (human); compound 1.0 µM): 94%
- residual activity (PAK7 (human); compound 10.0 µM): 79%
- residual activity (PIM2 (human); compound 1.0 µM): 100%
- residual activity (PIM2 (human); compound 10.0 µM): 107%
- residual activity (PIM3 (human); compound 1.0 µM): 101%
- residual activity (PIM3 (human); compound 10.0 µM): 78%
- residual activity (PKN2 (human); compound 1.0 µM): 84%
- residual activity (PKN2 (human); compound 10.0 µM): 82%
- residual activity (PLK1 (human); compound 1.0 µM): 78%
- residual activity (PLK1 (human); compound 10.0 µM): 40%
- residual activity (RIPK2 (human); compound 1.0 µM): 94%
- residual activity (RIPK2 (human); compound 10.0 µM): 79%
- residual activity (RPS6KA3 KD1 KD2 (human); compound 1.0 µM): 77%
- residual activity (RPS6KA3 KD1 KD2 (human); compound 10.0 µM): 25%
- residual activity (RPS6KA5 KD1 KD2 (human); compound 1.0 µM): 85%
- residual activity (RPS6KA5 KD1 KD2 (human); compound 10.0 µM): 65%
- residual activity ([3]; compound 1.0 µM): 88%
- residual activity ([3]; compound 10.0 µM): 70%
- residual activity (SRPK1 (human); compound 1.0 µM): 84%
- residual activity (SRPK1 (human); compound 10.0 µM): 69%

SMILES: NC(=O)c1c(NC(=O)C2CC2)sc2c1CCCC2
- residual activity ([1]; compound 1.0 µM): 100%
- residual activity ([1]; compound 10.0 µM): 96%
- residual activity (CAMKK2 (human); compound 1.0 µM): 106%
- residual activity (CAMKK2 (human); compound 10.0 µM): 48%
- residual activity (CHEK1 (human); compound 1.0 µM): 95%
- residual activity (CHEK1 (human); compound 10.0 µM): 84%
- residual activity (CLK2 (human); compound 1.0 µM): 89%
- residual activity (CLK2 (human); compound 10.0 µM): 49%
- residual activity (CSNK1D (human); compound 1.0 µM): 96%
- residual activity (CSNK1D (human); compound 10.0 µM): 81%
- residual activity (DYRK1A (human); compound 1.0 µM): 85%
- residual activity (DYRK1A (human); compound 10.0 µM): 48%
- residual activity (EPHA4 (human); compound 1.0 µM): 114%
- residual activity (EPHA4 (human); compound 10.0 µM): 53%
- residual activity (HIPK3 (human); compound 1.0 µM): 89%
- residual activity (HIPK3 (human); compound 10.0 µM): 102%
- residual activity (IGF1R (human); compound 1.0 µM): 86%
- residual activity (IGF1R (human); compound 10.0 µM): 79%
- residual activity (IKBKE (human); compound 10.0 µM): 109%
- residual activity (IRAK4 (human); compound 1.0 µM): 68%
- residual activity (IRAK4 (human); compound 10.0 µM): 28%
- residual activity (MAP3K7 TAB1 (human); compound 1.0 µM): 92%
- residual activity (MAP3K7 TAB1 (human); compound 10.0 µM): 53%
- residual activity (MAPK12 (human); compound 1.0 µM): 93%
- residual activity (MAPK12 (human); compound 10.0 µM): 94%
- residual activity (MAPK14 (human); compound 1.0 µM): 100%
- residual activity (MAPK14 (human); compound 10.0 µM): 101%
- residual activity (MAPK15 (human); compound 1.0 µM): 106%
- residual activity (MAPK15 (human); compound 10.0 µM): 67%
- residual activity (MAPK3 (human); compound 1.0 µM): 107%
- residual activity (MAPK3 (human); compound 10.0 µM): 125%
- residual activity (MAPKAPK2 (human); compound 1.0 µM): 98%
- residual activity (MARK1 (human); compound 1.0 µM): 93%
- residual activity (MARK1 (human); compound 10.0 µM): 67%
- residual activity (MARK2 (human); compound 1.0 µM): 97%
- residual activity (MST4 (human); compound 1.0 µM): 100%
- residual activity (MST4 (human); compound 10.0 µM): 57%
- residual activity (NEK2 (human); compound 1.0 µM): 99%
- residual activity (NEK2 (human); compound 10.0 µM): 92%
- residual activity (NEK6 (human); compound 1.0 µM): 107%
- residual activity (NEK6 (human); compound 10.0 µM): 93%
- residual activity ([2]; compound 1.0 µM): 92%
- residual activity ([2]; compound 10.0 µM): 96%
- residual activity (PAK4 (human); compound 1.0 µM): 93%
- residual activity (PAK4 (human); compound 10.0 µM): 46%
- residual activity (PAK6 (human); compound 1.0 µM): 83%
- residual activity (PAK6 (human); compound 10.0 µM): 80%
- residual activity (PAK7 (human); compound 1.0 µM): 100%
- residual activity (PAK7 (human); compound 10.0 µM): 54%
- residual activity (PIM2 (human); compound 1.0 µM): 98%
- residual activity (PIM2 (human); compound 10.0 µM): 92%
- residual activity (PIM3 (human); compound 1.0 µM): 111%
- residual activity (PIM3 (human); compound 10.0 µM): 68%
- residual activity (PKN2 (human); compound 1.0 µM): 106%
- residual activity (PKN2 (human); compound 10.0 µM): 97%
- residual activity (PLK1 (human); compound 1.0 µM): 98%
- residual activity (PLK1 (human); compound 10.0 µM): 100%
- residual activity (RIPK2 (human); compound 1.0 µM): 86%
- residual activity (RIPK2 (human); compound 10.0 µM): 36%
- residual activity (RPS6KA3 KD1 KD2 (human); compound 1.0 µM): 107%
- residual activity (RPS6KA3 KD1 KD2 (human); compound 10.0 µM): 89%
- residual activity (RPS6KA5 KD1 KD2 (human); compound 1.0 µM): 108%
- residual activity (RPS6KA5 KD1 KD2 (human); compound 10.0 µM): 108%
- residual activity ([3]; compound 1.0 µM): 109%
- residual activity ([3]; compound 10.0 µM): 107%
- residual activity (SRPK1 (human); compound 1.0 µM): 97%
- residual activity (SRPK1 (human); compound 10.0 µM): 93%
